Each block holds one molecule with its values, some of them ahead of it.
Columns and labels:
Type in all cases: physicochemical
[1] = ESR linewidth of trityl radicals (synthesis examples); conditions: singlet
[2] = Overhauser enhancement of trityl radicals (synthesis examples)
[3] = ESR line widths of nitroxides in degassed benzene
From the text: The ESR-spectral properties of a series of partially and fully deuterated nitroxides (compounds 3b-d) also useful in the method of the invention have been investigated. These radicals are derived from 2,5-di-t-butyl-3,4-dimethoxycarbonyl-pyrryloxyl (Compound 3a) and were investigated alongside Tempone (4-oxo-2,2,6,6-tetramethyl-piperidine-1-oxyl, 1) and CTPO (3-carbamoyl-2,2,5,5-tetramethyl-pyrroline-1-yloxyl, 2a) which are typical examples of nitroxides frequently used for imaging purposes.
Instrumentation. The ESR-spectra were recorded by the Upgrade Version ESP 3220-200SH of a Bruker ER-200D SRC instrument at 22°. The radical concentration was in the range 0.1-0.2 mM and the modulation amplitude was 10 mG. The microwave power was well below saturation. NMR-spectra were recorded on a Varian XL-300 spectrometer. Mass spectra were recorded on a VG Quattor II instrument equipped with ESPC electrospray. GLC analyses were performed on a HP 5830 ser II instrument, equipped with a fused-silica column (30 m, 0.25 μm, HP-1701). TLC analyses and column chromotographic separations were performed on Silica Gel 60, using heptane/ether as the eluent.
Preparation of pyrryloxyl radicals. To a degassed solution of 2 mg of the hydroxylamine 7a-7d in 2 ml of benzene was added ca. 10 mg NiOOH. After 5 min the suspension was filtered and the pale green blue solution was diluted with degassed benzene in order to obtain a solution suitable for ESR.
ESR-measurements. Summarised in Table 5 are the ESR line widths for the nitroxides discussed above. […] Perdeuteration results in a reduction of the line width by a factor of 2.2 for 1 and of 2.5 for 2b. […] The spin density distributions, nitrogen coupling constants and intrinsic line widths for 3d are compared in Table 6 to other nitroxides.

[4] = Stability measurements: half life without exclusion of air
[5] = Electron spin relaxation rates (radical concentration dependent) from CW ESR spectra and DNP data
Method: (§1) The following four water soluble, single ESR line trityls were investigated by NMRD, Dynamic Nuclear Polarisation (DNP) and ESR (Examples 1-4).
Electron spin relaxation rates were measured by analysis of CW ESR spectra and DNP data at 23° C. and 37° C. in water, isotonic saline, plasma and blood for the deuterated hydroxy trityl and in water and isotonic saline for the perdeuterated and symmetric trityl.

[6] = Relaxivity from NMRD profiles in water, plasma and blood; conditions: for Relaxivity: water
Method: as §1
(§2) The relaxivity and DNP enhancement data were measured in water, plasma and blood at 23° C. and 37° C. The results are set out in Tables 1 and 2.

[7] = DNP (Overhauser) enhancement and DNP-curve relaxivity at infinite concentration and power; conditions: for A. (enhancement at infinite concentration and power): water
From the text: The calibration data are generated by determining Overhauser enhancement values for the radical in the selected body fluid, at the selected temperature and at a range of oxygen (and preferably also radical) concentrations. The intrinsic esr relaxation times for the radical can be determined, under the same conditions, using a conventional esr spectrometer equipped with a temperature controller, with oxygen concentration being determined using the method of Ravin et al J. Appl. Physiol. 18:784-790(1964), a method known to produce accurate and reproducible results.
as §1, §2

[8] = Oxygen sensitivity at 260 MHz by ESR and DNP in water and blood; conditions: for Lorentzian line broadening by oxygen: 260 MHz
Method: The oxygen sensitivity of the deuterated hydroxy trityl was examined at 260 MHz in water and blood at 23° C. and 37° C. by ESR and DNP. The desired oxygen partial pressures were obtained in a simple shaking tonometer. The sample of 1-2 ml volume was shaken with a water saturated gas mixture flowing slowly above the sample for 5 min. The sample and gas was in a water bath maintaining the temperature. The gas mixtures were of high purity, chemically analysed. The Lorentzian line broadenings are 511 and 369 mG/mMo2 in water at 37° C. and 23° C. respectively and 329 mG/mMo2 in blood at 23° C.

[9] = water (isotonic saline), 23° C.
[10] = water (isotonic saline), 37° C.

Molecule: Bis-(8-potassium carboxylate-2,2,6,6-tetramethylbenzo [1,2-d:4 5-d']-bis(1,3)dithiol-4-yl)-mono-(8-potassium carboxylate-2,2,6,6-tetramethylbenzo[1,2-d:4,5-d']-bis (1,3)dioxol-4-yl)methyl [Example 20]
ESR Line width ([1]; H2 O, 200 G): 105 mg
Overhauser enhancement ([2]; H2 O, 6.9 mM, 0.012 W microwave power): 219

Molecule: [2H]C([2H])([2H])OC(=O)c1c(C(=O)OC([2H])([2H])[2H])c(C(C([2H])([2H])[2H])(C([2H])([2H])[2H])C([2H])([2H])[2H])n([O])c1C(C([2H])([2H])[2H])(C([2H])([2H])[2H])C([2H])([2H])[2H] [Compound 3d]
ESR Line width ([3]; benzene, 23° C.): 113 mg
decrease of line width by deuteration of the alkyl groups of the ester moiety, 3c:3d (factor) ([3]; degassed benzene, 22° C.): 1.9
ESR Line width ([3]; degassed benzene, 22° C., high dilution): 113 mg
nitrogen coupling constant ([3]; in benzene): 4.4 G

Molecule: COC(=O)c1c(C(=O)OC)c(C(C)(C)C)n([O])c1C(C)(C)C [Compound 3a, 2,5-di-t-butyl-3,4-dimethoxycarbonyl-pyrryloxyl]
ESR Line width ([3]; benzene, 23° C.): 228 mg

Molecule: [2H]C([2H])([2H])C1(C([2H])([2H])[2H])N([O])C(C([2H])([2H])[2H])(C([2H])([2H])[2H])C([2H])([2H])C(=O)C1([2H])[2H] [Compound 1-d16, 4-oxo-2,2,6,6-tetramethyl-piperidine-d16-1-oxyl, reference compound]
ESR Line width ([3]; benzene, 23° C.): 266 mg

Molecule: Tris-(8-sodium carboxylate-2,2,6,6-tetrakis-(^2 H3 -methyl)-benzo[1,2-d:4,5-d']-bis(1,3) dithiole)methyl [symmetric trityl]
2(3γe T1e)^-1, concentration dependent relaxation rate (peak-to-peak) [5, 9]: 13.2 ± 0.5 mg/mM
2(3γe T2e)^-1, concentration dependent relaxation rate (peak-to-peak) [5, 9]: 35.4 ± 0.6 mg/mM
2(3γe T1e)^-1, concentration dependent relaxation rate (peak-to-peak) [5, 10]: 17.7 ± 0.8 mg/mM
2(3γe T2e)^-1, concentration dependent relaxation rate (peak-to-peak) [5, 10]: 33.1 ± 0.3 mg/mM
Relaxivity ([6]; 23° C.): 0.21 mM⁻¹ s⁻¹
Relaxivity ([6]; 37° C.): 0.15 mM⁻¹ s⁻¹
A. (enhancement at infinite concentration and power) [7]: 266

Molecule: CC1(C)CC(=O)CC(C)(C)N1[O] [Compound 1, 4-oxo-2,2,6,6-tetramethyl-piperidine-1-oxyl, reference compound]
ESR Line width ([3]; benzene, 23° C.): 602 mg
reduction of the line width by perdeuteration (factor) ([3]; degassed benzene, 22° C.): 2.2

Molecule: [2H]C([2H])([2H])C(c1c(C(=O)OC)c(C(=O)OC)c(C(C([2H])([2H])[2H])(C([2H])([2H])[2H])C([2H])([2H])[2H])n1[O])(C([2H])([2H])[2H])C([2H])([2H])[2H] [Compound 3c]
ESR Line width ([3]; benzene, 23° C.): 219 mg
influence of deuteration of the t-butyl groups alone on line width, 3a:3c ([3]; degassed benzene, 22° C.): almost no influence

Molecule: CC1(C)C=C(C(=O)O)C(C)(C)N1[O] [Compound 2b, 2,2,5,5-tetramethyl-3-pyrrolin-1-oxyl-3-carboxylic acid, reference compound]
ESR Line width ([3]; benzene, 23° C.): 1032 mg
reduction of the line width by perdeuteration (factor) ([3]; degassed benzene, 22° C.): 2.5

Molecule: [2H]C1=C(C(=O)O)C(C([2H])([2H])[2H])(C([2H])([2H])[2H])N([O])C1(C([2H])([2H])[2H])C([2H])([2H])[2H] [Compound 2b-d13, 2,2,5,5-tetramethyl-3-pyrrolin-d13-oxyl-3-carboxylic acid, reference compound]
ESR Line width ([3]; benzene, 23° C.): 407 mg

Molecule: [2H]C([2H])([2H])OC(=O)c1c(C(=O)OC([2H])([2H])[2H])c(C(C)(C)C)n([O])c1C(C)(C)C [Compound 3b]
ESR Line width ([3]; benzene, 23° C.): 172 mg

More lines, now with the values ahead:

ESR Line width ([1]; H2 O, 200 G): 433 mg
Molecule: Bis(8-ethoxycarbonyl-2,2,6,6-tetra(hydroxymethyl)benzo[1,2-d: 4,5-d']bis(1,3)dithiol-4-yl)-mono(8-ethoxycarbonyl-2,2,6,6-tetramethylbenzo[1,2-d:4,5-d']-bis(1,3)dioxol-4-yl))methyl [Example 26]

Half life ([4]; in acetonitrile without exclusion of air): 83.33 days
ESR Line width ([1]; THF, 200 G): 325 mg
Overhauser enhancement ([2]; THF, 2.1 mM, 4 W microwave power): 156
Molecule: Bis-(8-ethoxycarbonyl-2,2,6,6-tetramethylbenzo[1,2-d: 4,5-d']-bis(1,3)dithiole-4-yl)-mono-(8-ethoxycarbonyl-2,2,6,6-tetramethylbenzo[1,2-d:4,5-d']-bis(1,3)dioxol-4-yl)methyl [Example 19]

ESR line width compared with 3b ([3]; upon treatment with NiOOH): almost identical to that of 3b
Molecule: CC(C)(C)c1c(C(=O)O)c(C(=O)O)c(C(C)(C)C)n1O [Compound 4, 2.5-di-t-butyl-N-hydroxy-pyrrol-3,4-dicarboxylic acid]

Half life ([4]; in water without exclusion of air): 5 days
ESR Line width ([1]; 3.4 mM in H2 O, 200 G): 120 mg
Overhauser enhancement ([2]; 3.4 mM in H2 O, 5 W microwave power): 164
Molecule: Bis(8-carboxy-2,2,6,6-tetra(hydroxymethyl)benzo[2-d: 4,5-d']bis(1,3)dithiol-4-yl)-mono(8-carboxy-2,2,6,6-tetramethylbenzo[2-d: 4,5-d']-bis(1,3)dioxol-4-yl)) methyl sodium salt [Example 27]

2(3γe T1e)^-1, relaxation rate as a function of oxygen concentration (peak-to-peak) ([8]; blood, 23° C.): 250 mg/mM
2(3γe T2e)^-1, relaxation rate as a function of oxygen concentration (peak-to-peak) ([8]; blood, 23° C.): 329 mg/mM
(γe T1e +L T2e)^-1, square root of slope of the inverse DNP curve: constant term ([8]; blood, 23° C.): 12.9 mg/mM
Lorentzian line broadening by oxygen ([8]; blood, 23° C.): 329 mG/mMo2
2(3γe T1e)^-1, relaxation rate as a function of oxygen concentration (peak-to-peak) ([8]; blood, 37° C.): 330 mg/mM
2(3γe T2e)^-1, relaxation rate as a function of oxygen concentration (peak-to-peak) ([8]; blood, 37° C.): 428 mg/mM
(γe T1e +L T2e)^-1, square root of slope of the inverse DNP curve: constant term ([8]; blood, 37° C.): 15.0 mg/mM
2(3γe T1e)^-1, relaxation rate as a function of oxygen concentration (peak-to-peak) ([8]; water, 23° C.): 301 mg/mM
2(3γe T2e)^-1, relaxation rate as a function of oxygen concentration (peak-to-peak) ([8]; water, 23° C.): 369 mg/mM
(γe T1e +L T2e)^-1, square root of slope of the inverse DNP curve: constant term ([8]; water, 23° C.): 13.4 mg/mM
Lorentzian line broadening by oxygen ([8]; water, 23° C.): 369 mG/mMo2
2(3γe T1e)^-1, relaxation rate as a function of oxygen concentration (peak-to-peak) ([8]; water, 37° C.): 398 mg/mM
2(3γe T2e)^-1, relaxation rate as a function of oxygen concentration (peak-to-peak) ([8]; water, 37° C.): 511 mg/mM
(γe T1e +L T2e)^-1, square root of slope of the inverse DNP curve: constant term ([8]; water, 37° C.): 14.2 mg/mM
Lorentzian line broadening by oxygen ([8]; water, 37° C.): 511 mG/mMo2
2(3γe T1e)^-1, concentration dependent relaxation rate (peak-to-peak) ([5]; blood, 37° C.): 3.6 ± 0.5 mg/mM
2(3γe T2e)^-1, concentration dependent relaxation rate (peak-to-peak) ([5]; blood, 37° C.): 21.5 ± 0.5 mg/mM
2(3γe T1e)^-1, concentration dependent relaxation rate (peak-to-peak) ([5]; plasma, 37° C.): 2.7 ± 0.5 mg/mM
2(3γe T2e)^-1, concentration dependent relaxation rate (peak-to-peak) ([5]; plasma, 37° C.): 9.8 ± 0.5 mg/mM
2(3γe T1e)^-1, concentration dependent relaxation rate (peak-to-peak) [5, 9]: 2.6 ± 0.1 mg/mM
2(3γe T2e)^-1, concentration dependent relaxation rate (peak-to-peak) [5, 9]: 11.1 ± 0.5 mg/mM
2(3γe T1e)^-1, concentration dependent relaxation rate (peak-to-peak) [5, 10]: 2.8 ± 0.2 mg/mM
2(3γe T2e)^-1, concentration dependent relaxation rate (peak-to-peak) [5, 10]: 8.0 ± 0.2 mg/mM
Relaxivity at 400kHz ([6]; blood, 23° C.): 0.53 mM⁻¹ s⁻¹
Relaxivity at 400kHz ([6]; blood, 37° C.): 0.44 mM⁻¹ s⁻¹
Relaxivity at 400kHz ([6]; plasma, 23° C.): 0.48 mM⁻¹ s⁻¹
Relaxivity at 400kHz ([6]; plasma, 37° C.): 0.45 mM⁻¹ s⁻¹
Relaxivity ([6]; 23° C.): 0.26 mM⁻¹ s⁻¹
Relaxivity ([6]; 37° C.): 0.20 mM⁻¹ s⁻¹
T1 i.e. proton relaxivity ([7]; blood sample, 37° C.): 0.44 mM⁻¹ s⁻¹
maximum Overhauser enhancement (i.e. at infinite VHF power and infinite radical concentration) ([7]; blood sample, 37° C.): 192
A. (infinite concentration and power), DNP enhancement ([7]; blood, 37° C.): 192
Relaxivity at infinite concentration and power ([7]; blood, 37° C.): 0.44 mM⁻¹ s⁻¹
A. (infinite concentration and power), DNP enhancement ([7]; plasma, 37° C.): 231
Relaxivity at infinite concentration and power ([7]; plasma, 37° C.): 0.32 mM⁻¹ s⁻¹
A. (enhancement at infinite concentration and power) [7]: 278
Molecule: Bis-(8-sodium carboxylate-2,2,6,6-tetrakis-(hydroxy-^2 H2 -methyl)-benzo[1,2-d:4,5-d']-bis(1,3) dithiole-4-yl)-mono-(8-sodium carboxylate-2,2,6,6-tetramethylbenzo [1,2-d:4,5-d']-bis(1,3) dioxole-4-yl)methyl [deuterated hydroxy trityl]

ESR Line width ([1]; 1.5 mM in H2 O, 100 G): 100 mg
Molecule: Tris(8-carboxy-2,2,6,6-tetrahydroxymethylbenzo[1,2-d: 4,5-d']bis(1,3)dithiole-4-yl)methyl sodium salt [Example 14]
